Results taken from patent US5087284A, “5-substituted thiadiazole ureas and their use as herbicides” (Rhone-Poulenc, Inc., priority 1989, dated 1992).

What was measured:
Type in all cases: in vivo
[1] = tested on: crops and weed species; assay: Pre- and post-emergence herbicide tests, overall assessment; settings: TABLES III-VI
Description: All crop and weed species were planted individually in 3" plastic pots containing potting soil. Four seeds each of corn, cotton, and snapbeans were seeded to a depth equal to the diameter of the seed. All other species were surface seeded and sprinkled with screened soil in an amount sufficient to cover the seed. Immediately after planting, all pots were watered by sub-irrigation in greenhouse trays. Pots for the pre-emergence phase were seeded one day before treatment.
Planting dates for the post-emergence phase were varied so that all seedlings would reach the desired stage of development simultaneously. The proper stage of seedling development for treatment in the post-emergence phase is as follows:
Compounds were tested at rates of application equivalent to 8 lbs. of actual compound per acre in a spray volume of 38 gallons per acre. Spray hood constants required to deliver the above volume are as follows:
Spray applications were made in a hood containing a removable belt and fixed spray nozzle. For passage through the spray hood, one pot of each specie (pre-emergence phase) was placed on the rear half of the flat. Treatments were removed to the greenhose after spraying. Watering during the observation period was done only by sub-irrigation.
Two weeks after treatment, pre- and post-emergence injury or control was visually rated, and the results were as shown in the following tables. Pre-emergence data are provided in TABLE III and post-emergence data are provided in TABLE IV, for compounds having the formula illustrated in TABLE I. Correspondingly, pre-emergence and post-emergence data, respectively, are set forth in TABLES V AND VI, for compounds having the formula illustrated in TABLE II.

[2] = tested on: Sinapis; assay: Field pre-emergence test, Sinapis; settings: reading 0 (no effect) to 10 (completely killed), the values are: rating score 0–10
Description: (§1) Forty rows, 70 feet long, were planted to weeds and crops. Two rows were planted on each bed. Beds were 40 inches apart from center to center. The two rows were about 10 inches apart on each. Beds were rolled prior to planting to provide a uniform smooth surface. Soil temperature at a depth of 11/2 inches was 66° F. at time of planting. Post-emergence applications were made by spraying bands across rows 10 feet wide using a self-propelled plot sprayer with a 10 foot boom equipped with Teejet 8001 flat spray nozzle tips and operated at 40 psi. A total of 84 fluid ounces of spray material was applied to three replicates. Each replicate plot was 10 feet wide by 66.67 feet long.
(§2) An additional 100 feet of crops and weeds shown in TABLES XIII and XIV were planted in the same manner as the above post-emergence plots. Soil temperature at planting was […] at a depth of 11/2 inches. […]
(§3) Eight days after the application, readings were made on the effect of the chemicals on each crop and weed in the post-emergence treatment. A reading of 0 was recorded if no effect was observed; 10 recorded if the plants were completely killed, and readings of 1 to 9 for intermediate kills. A second reading of the post-emergence treatments was made 14 days after the application.
(§4) Readings were made 14 and 20 days after the pre-emergence application.

[3] = tested on: Wheat; assay: Field pre-emergence test, wheat; settings: reading 0 (no effect) to 10 (completely killed), the values are: rating score 0–10
Description: as §1, §2, §3, §4

[4] = tested on: Oats; assay: Field post-emergence test, oats; settings: 2 lbs/acre, reading 0 (no effect) to 10 (completely killed), the values are: rating score 0–10
Description: as §1, §3

[5] = tested on: Sinapis; assay: Field post-emergence test, Sinapis; settings: 2 lbs/acre, reading 0 (no effect) to 10 (completely killed), the values are: rating score 0–10
Description: as §1, §3

[6] = tested on: Wheat; assay: Field post-emergence test, wheat; settings: 2 lbs/acre, reading 0 (no effect) to 10 (completely killed), the values are: control rating (0–10 scale)
Description: as §1, §3

[7] = tested on: Oats; assay: Field pre-emergence test, oats; settings: reading 0 (no effect) to 10 (completely killed), the values are: rating score 0–10
Description: as §1, §2, §3, §4

SMILES: CNC(=O)Nc1nnc(COC)s1 [Example 25]
- selectivity when applied to a certain crop or weed species [1]: more selective

SMILES: CCNC(=O)Nc1nnc(C(F)(F)F)s1 [Example 9]
- selectivity when applied to a certain crop or weed species [1]: more selective

SMILES: CNC(=O)Nc1nnc(SC)s1 [Example 26]
- effectiveness applied to a variety of crops and weed species [1]: extremely effective

SMILES: O=C(Nc1ccc(Cl)c(Cl)c1)Nc1nnc(C(F)(F)F)s1 [Example 16]
- selectivity when applied to a certain crop or weed species [1]: more selective

SMILES: O=C(Nc1ccc(Cl)cc1)Nc1nnc(C(F)(F)F)s1 [Example 15]
- selectivity when applied to a certain crop or weed species [1]: more selective

SMILES: CCN(C(=O)NC)c1nnc(C(F)(F)F)s1 [Example 37]
- effectiveness applied to a variety of crops and weed species [1]: extremely effective

SMILES: CNC(=O)Nc1nnc(C(F)(F)F)s1 [Example 1, 1-Methyl-3-[5-Trifluoromethyl-2-(1,3,4-Thiadiazolyl)] Urea]
- effectiveness applied to a variety of crops and weed species [1]: extremely effective
- PRE-EMERGENCY ACTIVITY, % CONTROL ([2]; 1 lbs/acre): 10
- PRE-EMERGENCY ACTIVITY, % CONTROL ([2]; 2 lbs/acre): 10
- PRE-EMERGENCY ACTIVITY, % CONTROL ([3]; 1 lbs/acre): 10
- PRE-EMERGENCY ACTIVITY, % CONTROL ([3]; 2 lbs/acre): 10
- POST-EMERGENCE ACTIVITY, % CONTROL [4]: 9
- POST-EMERGENCE ACTIVITY, % CONTROL [5]: 10
- POST-EMERGENCE ACTIVITY, % CONTROL [6]: 10
- PRE-EMERGENCY ACTIVITY, % CONTROL ([7]; 1 lbs/acre): 10
- PRE-EMERGENCY ACTIVITY, % CONTROL ([7]; 2 lbs/acre): 10

SMILES: Cc1nnc(NC(=O)N(C)C)s1 [Example 19]
- selectivity post-emergence versus pre-emergence [1]: The converse of this relationship

SMILES: CNC(=O)Nc1nnc(CC(C)C)s1 [Example 21]
- selectivity when applied to a certain crop or weed species [1]: more selective

SMILES: C=CCNC(=O)Nc1nnc(C(F)(F)F)s1 [Example 12]
- selectivity post-emergence versus pre-emergence [1]: control post-emergence growth, while have little effect in regard to pre-emergence

SMILES: CN(C)C(=O)Nc1nnc(C(F)(F)F)s1 [Example 2, 1,1-Dimethyl-3-[5-Trifluoromethyl-2-(1,3,4-Thiadiazolyl)] Urea]
- effectiveness applied to a variety of crops and weed species [1]: extremely effective

SMILES: CCc1nnc(NC(=O)N(C)C)s1 [Example 20]
- selectivity when applied to a certain crop or weed species [1]: more selective

SMILES: CSc1nnc(N(C)C(=O)N(C)C)s1 [Example 5, 1,1,3-trimethyl-3-[5-methylthio-3-(1,3,4-thiadiazolyl)] urea]
- effectiveness applied to a variety of crops and weed species [1]: extremely effective

SMILES: CNC(=O)Nc1nncs1 [Example 35]
- selectivity when applied to a certain crop or weed species [1]: more selective

SMILES: CNC(=O)N(C)c1nnc(C(F)(F)F)s1 [Example 36]
- effectiveness applied to a variety of crops and weed species [1]: extremely effective
